Laboratory results from patent publication US20220395464A1, “ORALLY ADMINISTERED SOLID DOSAGE FORM DRUG” (ASCENTAWITS PHARMACEUTICALS, LTD., priority 2019, published 2022).
“And” between values parts separate entries of the source, which are not always exact repeats. Identical values can stand only once.

Legend:
[1] = Stability in hepatomicrosome with NADPH (LC-MS/MS); type: in vitro ADME, human; conditions: for % Remaining: human hepatomicrosome 0.5 mg/ml, NADPH 2 mM, 37° C., Sample 1, Sample 2
Protocol: The compounds, hepatomicrosome and reduced coenzyme NADPH were mixed together. Besides, a final concentration of the hepatomicrosome was 0.5 mg/ml, and human, male and mixed types of the hepatomicrosome were purchased. A final concentration of the NADPH was 2 mM. Next, the preceding mixtures were incubated in buffer (100 mM KH2PO4—K2HPO4) at 37° C. for 0, 5, 15, 30, 45, and 60 minutes, respectively. At the appointed incubation time, the reaction was terminated by the addition of an internal standard solution. Finally, the samples were centrifuged and the supernatant was taken for detection by LC-MS/MS.
Through mass spectrometry analysis, a concentration of the compounds in each sample was expressed by a peak-area ratio (a ratio of the peak-area of the compound to a peak-area of the internal standard). Then, each remaining percentage of the compounds (% Remaining) at each appointed incubation time was calculated with a reference that 0 minute at each concentration of the compounds. In logarithm of the remaining percentage was fitted linearly with the appointed incubation times, and a half-life and an intrinsic clearance were calculated according to the following formulas.
The remaining percentage (% Remaining)=(a peak area ratio at a certain appointed time (PARappointed time)/a peak area ratio at 0 minute (PAR0-mm)×100 (PAR: peak area ratio)
The elimination rate constant (k)=a negative of a slope (-gradient)
In vitro clearance (CLint, in vitro) (ml/min/mg)=k/c (c: a concentration of hepatomicrosome in the incubation system)

[2] = Pharmacokinetics after single intravenous drip infusion, plasma LC-MS/MS; type: in vivo, Philippine macaques; conditions: individual animals 101, 102, 103; for Plasma-drug concentration: AST-3424 intravenous drip infusion 0.58 mg/kg
Protocol: AST-3424 and AST-3424-D6 (i.e. the compound of formula I) were administered to Philippine macaques by intravenous drip infusion, and blood samples were collected at different appointed times. LC-MS/MS was used to determine concentrations of the test substances in plasma of the Philippine macaques after administration, and relevant pharmacokinetic parameters were calculated.
Preparation method: 0.447 ml of AST-3424 (0.2 mg/ml) and 0.481 ml of AST-3424-D6 (0.2 mg/ml) were added into 104.272 ml of the dissolvent, respectively, and mixed for 5 minutes to obtain colorless and clarified solutions with pH 7.0.
The four male Philippine macaques were purchased from Guangxi Xiongsen Primate Development Experiment Co., Ltd. All Philippine macaques were healthy with qualified medical examination and no abnormality. Three of animals were used for the experiment, and one of them was used to prepare blank plasma.
About 0.8 ml of blood samples were collected through femoral vein and anticoagulated with heparin sodium. Appointed times of blood collection were before administration, 0.17, 0.25, 0.5, 0.75, 1, 2, and 4 hours after administration.
The blood samples were placed on ice after collection. Next, plasma samples were separated by centrifugation, and centrifugation conditions were 3500 rpm for 10 minutes at 4° C. Then, the collected plasma samples were stored at −80° C. until analysis. The plasma samples were analyzed by LC-MS/MS by an analysis department of an experimental institution. Besides, Lower limit of quantifications (LLOQ) of AST-3424 and AST-3424-D6 detection were 1 ng/ml. The accuracy of analysis results of an accompanying standard curve and a quality control samples all met the relevant requirements of biological analysis (the accuracy of the quality control samples exceeding 66.7% was between 85˜115%) in a process of the sample detection.
According to average blood concentration data of each group at each appointed time, the pharmacokinetic parameters of the compounds were respectively computed by a pharmacokinetic computing software, a non-compartmental model. In addition, the pharmacokinetic parameters were AUC0-t, AUC0-∞, MRT0-∞, Cmax, Tmax, t1/2, etc. In the case of the concentrations of the samples whose concentration being lower than a lower limit of quantification, the following schemes were used to compute the pharmacokinetic parameters. The samples sampled before reaching Cmax shall be computed as zero value, while the samples sampled after reaching Cmax shall be computed as non-quantifiable (marked as “BLQ”).
After a single intravenous infusion of the compounds AST-3424 and AST-3424-D6 was administered to the Philippine macaques, the whole blood samples of the corresponding animals were collected at the appointed times. Next, the whole blood samples were processed and biologically analyzed to obtain concentrations of the compounds in the plasma at the different appointed times. Results of the assay were listed in Table 14 below, and corresponding means of the plasma-drug concentration-time curves are shown in FIG. 3.
According to the plasma-drug concentration data of each drug group, the pharmacokinetic parameters of each compound group were computed using the non-compartmental model of the pharmacokinetic computing software. The pharmacokinetic

[3] = AST-3424 0.58 mg/kg single intravenous infusion, plasma, 0.58 mg/kg

## C[C@H](OP(=O)(N1CC1)N1CC1)c1ccc([N+](=O)[O-])c(Oc2cccc(C(=O)N(C)C)c2)c1 [AST-3424, (S)-1-(3-(3-N,N-Dimethylaminocarbonyl)phenoxy-4-nitrophenyl)-1-ethyl-N,N′-bis(ethylene) phosphoramidate]
[1]; human hepatomicrosome
  Stability parameter k (elimination rate constant): 0.0606 min⁻¹
[1]; 0 minutes
  % Remaining: 101.36% and 98.64%
[1]; 5 minutes
  % Remaining: 77.67% and 80.00%
[1]; 15 minutes
  % Remaining: 45.83% and 47.38%
[1]; 30 minutes
  % Remaining: 17.86% and 16.93%
[1]; 45 minutes
  % Remaining: 6.52% and 6.95%
[1]; 60 minutes
  % Remaining: 2.64% and 2.68%
[1]; human hepatomicrosome, 0 minutes
  % Remaining, Average: 100.00%
[1]; human hepatomicrosome, 5 minutes
  % Remaining, Average: 78.83%
[1]; human hepatomicrosome, 15 minutes
  % Remaining, Average: 46.60%
[1]; human hepatomicrosome, 30 minutes
  % Remaining, Average: 17.40%
[1]; human hepatomicrosome, 45 minutes
  % Remaining, Average: 6.74%
[1]; human hepatomicrosome, 60 minutes
  % Remaining, Average: 2.66%
[1]; male, liver microsomes (hepatomicrosome), human hepatomicrosome, read-out: Stability parameter (t1/2)
  half-life: 11.4 min
[2]; [3]
  AUC(0−t): 430.42 ng·h/mL and 474.63 ng·h/mL
  AUC(0−∞): 430.76 ng·h/mL and 475.04 ng·h/mL
  Cl: 22.4412 mL/min/kg and 20.3492 mL/min/kg
  Cmax: 677.40 ng/mL and 800.80 ng/mL
  MRT(0−t): 11.4 min
  MRT(0−∞): 11.4 min and 10.8 min
  T1/2: 10.8 min and 11.4 min
  Tmax: 15 min and 30 min and 10.2 min
  Vss: 0.26123 L/kg and 0.21373 L/kg
  Vz: 0.35358 L/kg and 0.33343 L/kg
[2]; 0.17 hr
  Plasma-drug concentration: 800.80 ng/mL and 685.96 ng/mL
[2]; 0.25 hr
  Plasma-drug concentration: 729.91 ng/mL and 695.61 ng/mL
[2]; 0.5 hr
  Plasma-drug concentration: 729.08 ng/mL and 679.80 ng/mL
[2]; 0.75 hr
  Plasma-drug concentration: 157.68 ng/mL and 118.92 ng/mL
[2]; 1 hr
  Plasma-drug concentration: 50.63 ng/mL and 31.86 ng/mL
[2]; 2 hr, LLOQ 1 ng/ml
  Plasma-drug concentration: 1.51 ng/ ml and BLQ
[2]; 4 hr, LLOQ 1 ng/ml
  Plasma-drug concentration: BLQ
